Data on 19 compounds can be found in patent US10654834B2 (Venenum Biodesign, LLC, priority 2016, dated 2020).

The target in one assay is T1, mouse TGR5 receptor (Mus musculus, UniProt Q80SS6).
T1 construct: host or cells: HEK293-EBNA (293 c18, ATCC CRL10852)
T1 sequence (Q80SS6 1-329): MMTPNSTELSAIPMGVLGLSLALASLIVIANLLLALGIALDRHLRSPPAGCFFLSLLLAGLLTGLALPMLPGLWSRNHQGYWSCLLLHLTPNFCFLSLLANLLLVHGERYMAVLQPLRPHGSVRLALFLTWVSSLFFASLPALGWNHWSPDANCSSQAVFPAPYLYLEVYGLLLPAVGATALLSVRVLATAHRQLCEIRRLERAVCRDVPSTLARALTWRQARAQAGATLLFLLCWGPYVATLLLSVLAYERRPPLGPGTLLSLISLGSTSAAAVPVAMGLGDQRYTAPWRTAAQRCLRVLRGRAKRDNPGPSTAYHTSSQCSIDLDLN
Kind of assay: Mouse TGR5 luminescent cAMP production assay (HEK293-EBNA cells, DiscoveRx cAMP XS+ kit). The assay is classed as cell-based. Particulars: HEK293-EBNA cells overexpressing mouse TGR5, luminescent cAMP assay; read-out: Mouse TGR5 Lum. cAMP Activity (EC50). The procedure:
Mouse TGR5 cAMP Production Assay
Compounds of the present invention were evaluated for their ability to induce cAMP production in HEK-EBNA cells overexpressing the mouse TGR5 receptor. Human embryonic kidney cells (HEK293-EBNA) stably expressing mouse TGR5 receptor were established using the following procedure. Specifically, a commercially obtained gene encoding mouse TGR5 (accession number BC116914) from Thermo Scientific (Waltham, Mass.) was cloned into an episomal expression vector. The resulting expression plasmid was then transfected into 293 c18 (ATCC® CRL10852™) cells, which express the Epstein-Barr virus nuclear antigen EBNA1 and can support the replication of episomal vectors. Selection for the plasmid was maintained with Hygromycin B. Cells were cultured and maintained in DMEM (Sigma; cat #6429) supplemented with 10% Fetal Bovine Serum, 1% penicillin/streptomycin, 2 mM L-alanine L-glutamine (GlutaMax), and 250 μg/mL Hygromycin.
We developed two cAMP production assays.
(i) Luminescent cAMP Production Assay
In this first cAMP production assay, the cAMP production was measured using DiscoveRx's cAMP XS+ kit following the manufacturer's recommended protocol. Briefly, HEK293-EBNA cells stably overexpressing mouse TGR5 were harvested using non-enzymatic cell dissociation buffer (Sigma-Aldrich, St. Louis, Mo.), spun down, then resuspended in serum-free DMEM with 500 μM IBMX at a density of 1.25×10^6 cells/mL. 500 μL of cAMP antibody solution was added to 500 μL of cell suspension and incubated at room temperature for 20 min.
Test compounds were serially diluted (half-log dilutions) in DMSO and then further diluted 1:50 in PBS, 10 mM HEPES buffer. 2 μL of serially diluted compound was added to a 384-well low volume plate (Greiner cat #784075) and centrifuged briefly. 2 μl of the cell/cAMP antibody mixture was then added to each compound-containing well and allowed to incubate at room temperature for one (1) hour. Following incubation, the XS+ kits' ED/Lysis/CL Substrate Working Solution was prepared following the manufacturer's recommended protocol and 4 μL was added to each well of the plate. The plate was then incubated for one (1) hour at room temperature. Following incubation, 4 μL of (Enzyme Acceptor) EA reagent was added to the plate and allowed to incubate overnight at room temperature. Luminescent signal was then detected using the Viewlux instrument (PerkinElmer, Waltham, Mass.).
In Table 52, EC50 values for both human and mouse cells were determined according to the TGR5 cAMP assays described above. […]
(In general: Changes in cAMP serve as a functional read-out for many G protein-coupled receptors.)

A further assay concerns the target T2, human TGR5 receptor (Homo sapiens, UniProt Q8TDU6).
T2 construct: host or cells: CHO-K1 (hTGR5-CHO)
T2 sequence (Q8TDU6 1-330): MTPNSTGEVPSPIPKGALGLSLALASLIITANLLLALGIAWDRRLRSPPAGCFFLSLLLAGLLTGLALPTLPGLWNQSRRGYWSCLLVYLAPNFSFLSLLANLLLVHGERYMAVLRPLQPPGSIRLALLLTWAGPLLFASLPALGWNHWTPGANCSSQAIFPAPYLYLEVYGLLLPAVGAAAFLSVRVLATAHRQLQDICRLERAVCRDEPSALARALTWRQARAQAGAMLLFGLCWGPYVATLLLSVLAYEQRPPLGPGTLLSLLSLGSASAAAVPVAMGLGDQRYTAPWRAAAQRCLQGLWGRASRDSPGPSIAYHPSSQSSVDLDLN
Description: Human TGR5 cAMP production assay (hTGR5-CHO cells, DiscoveRx cAMP XS+ kit). The format is cell-based. Particulars: luminescent cAMP assay, read-out: Human TGR5 Lum. cAMP Activity (EC50). The essentials: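 EC50 values come from luminescent enzyme-complementation cAMP detection, read after overnight incubation. Beforehand, hTGR5-expressing CHO-K1 cells with IBMX and anti-cAMP antibody were exposed 1 h at room temperature to serially diluted (half-log) compounds.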

A word on the EC50: it is the concentration needed to bring the measured effect to its halfway point. Regarding `CC(C)(C)OC(=O)N1CCC(Oc2cc(N3CCC[C@H]3C(=O)NCCc3ccc(C#N)cc3)nc(C(F)(F)F)n2)CC1` [Compound 45, (S)-tert-butyl 4-((6-(2-((4-cyanophenethyl)carbamoyl)pyrrolidin-1-yl)-2-(trifluoromethyl)pyrimidin-4-yl)oxy)piperidine-1-carboxylate], the values for the EC50 on mouse TGR5 receptor and on human TGR5 receptor were below 0.1 µM and 0.1 to 0.999 µM, respectively.

Regarding `CNCC1CCN(c2cc(N3CCC[C@H]3C(=O)NCCc3ccc(C#N)cc3)nc(C(F)(F)F)n2)CC1` [Compound 49], the EC50 on mouse TGR5 receptor and on human TGR5 receptor was 0.1 to 0.999 µM in each case.

For `N#Cc1ccc(CCNC(=O)[C@@H]2CCCN2c2cc(OC3CCNCC3)nc(C(F)(F)F)n2)cc1` [Compound 51, (S)-N-(4-cyanophenethyl)-1-(6-(piperidin-4-yloxy)-2-(trifluoromethyl)pyrimidin-4-yl)pyrrolidine-2-carboxamide], the results for the EC50 on mouse TGR5 receptor and at human TGR5 receptor were 0.1 to 0.999 µM and 1 to 30 µM, respectively.

As to `CC(=O)NCC1CCN(c2cc(N3CCC[C@H]3C(=O)NCCc3ccc(C#N)cc3)nc(C(F)(F)F)n2)CC1` [Compound 52, (S)-1-(6-(4-(acetamidomethyl)piperidin-1-yl)-2-(trifluoromethyl)pyrimidin-4-yl)-N-(4-cyanophenethyl)pyrrolidine-2-carboxamide], the concentration giving a half-maximal response (EC50) at mouse TGR5 receptor was below 0.1 µM; at human TGR5 receptor, 0.1 to 0.999 µM.

For `CC(=O)N1CCC(Nc2cc(N3CCC[C@H]3C(=O)NCCc3ccc(C#N)cc3)nc(C(F)(F)F)n2)CC1` [Compound 53, (S)-1-(6-((1-acetylpiperidin-4-yl)amino)-2-(trifluoromethyl)pyrimidin-4-yl)-N-(4-cyanophenethyl)pyrrolidine-2-carboxamide], the EC50 at mouse TGR5 receptor was below 0.1 µM; on human TGR5 receptor, 1 to 30 µM.

As to `CC(=O)N(C)CC1CCN(c2cc(N3CCC[C@H]3C(=O)NCCc3ccc(C#N)cc3)nc(C(F)(F)F)n2)CC1` [Compound 54, (S)-N-(4-cyanophenethyl)-1-(6-(4-((N-methylacetamido)methyl)piperidin-1-yl)-2-(trifluoromethyl)pyrimidin-4-yl)pyrrolidine-2-carboxamide], the EC50 on mouse TGR5 receptor is below 0.1 µM; on human TGR5 receptor, 0.1 to 0.999 µM.

For the compound `CCCCCCc1ccc(-c2cc(N3CCC[C@H]3C(=O)NCCc3ccc(C#N)cc3)nc(C(F)(F)F)n2)s1` [Compound 139, (S)—N-(4-cyanophenethyl)-1-(6-(5-hexylthiophen-2-yl)-2-(trifluoromethyl)pyrimidin-4-yl)pyrrolidine-2-carboxamide], the EC50 at mouse TGR5 receptor and on human TGR5 receptor was 1 to 30 µM throughout.

Turning to `O=C(NCCc1ccc(C(F)(F)F)cc1)[C@@H]1CCCN1c1cc(-c2ccncc2)nc(C(F)(F)F)n1` [Compound 140, (S)-1-(6-(pyridin-4-yl)-2-(trifluoromethyl)pyrimidin-4-yl)-N-(4-(trifluoromethyl)phenethyl)pyrrolidine-2-carboxamide], the EC50 at mouse TGR5 receptor and at human TGR5 receptor was 0.1 to 0.999 µM each time.

`N#Cc1ccc(CCNC(=O)[C@@H]2CCCN2c2cc(-c3ccncc3)nc(C(F)(F)F)n2)cc1` [Compound 141, (S)-N-(4-cyanophenethyl)-1-(6-(pyridin-4-yl)-2-(trifluoromethyl)pyrimidin-4-yl)pyrrolidine-2-carboxamide]: the EC50 at mouse TGR5 receptor and on human TGR5 receptor was 0.1 to 0.999 µM each time.

In the case of `N#Cc1ccc(CCNC(=O)[C@@H]2CCCN2c2cc(-c3cccnc3)nc(C(F)(F)F)n2)cc1` [Compound 142, (S)-N-(4-cyanophenethyl)-1-(6-(pyridin-3-yl)-2-(trifluoromethyl)pyrimidin-4-yl)pyrrolidine-2-carboxamide], the concentration for a half-maximal effect (EC50) at mouse TGR5 receptor lay within 0.1 to 0.999 µM; on human TGR5 receptor it was 1 to 30 µM.

With `Cc1ccc(-c2cc(N3CCC[C@H]3C(=O)NCCc3ccc(C#N)cc3)nc(C(F)(F)F)n2)cc1` [Compound 143, (S)-N-(4-cyanophenethyl)-1-(6-(p-tolyl)-2-(trifluoromethyl)pyrimidin-4-yl)pyrrolidine-2-carboxamide], the concentration for a half-maximal effect (EC50) at mouse TGR5 receptor and on human TGR5 receptor was 0.1 to 0.999 µM throughout.

Turning to `N#Cc1ccc(CCNC(=O)[C@@H]2CCCN2c2cc(-c3ccccc3)nc(C(F)(F)F)n2)cc1` [Compound 144, (S)-N-(4-cyanophenethyl)-1-(6-phenyl-2-(trifluoromethyl)pyrimidin-4-yl)pyrrolidine-2-carboxamide], the half-maximal effective concentration (EC50) at mouse TGR5 receptor and on human TGR5 receptor was 0.1 to 0.999 µM in each case.

With `N#Cc1ccc(CCNC(=O)[C@@H]2CCCN2c2cc(-c3ccc(C#N)cc3)nc(C(F)(F)F)n2)cc1` [Compound 145, (S)-N-(4-cyanophenethyl)-1-(6-(4-cyanophenyl)-2-(trifluoromethyl)pyrimidin-4-yl)pyrrolidine-2-carboxamide], the concentration for a half-maximal effect (EC50) at mouse TGR5 receptor was below 0.1 µM; at human TGR5 receptor, 0.1 to 0.999 µM.

As to `N#Cc1ccc(CCNC(=O)[C@@H]2CCCN2c2cc(-c3ccc(C(F)(F)F)cc3)nc(C(F)(F)F)n2)cc1` [Compound 147, (S)-N-(4-cyanophenethyl)-1-(2-(trifluoromethyl)-6-(4-(trifluoromethyl)phenyl)pyrimidin-4-yl)pyrrolidine-2-carboxamide], the EC50 at mouse TGR5 receptor and on human TGR5 receptor was 0.1 to 0.999 µM throughout.

Consider `COc1ccc(-c2cc(N3CCC[C@H]3C(=O)NCCc3ccc(C#N)cc3)nc(C(F)(F)F)n2)cc1` [Compound 148, (S)-N-(4-cyanophenethyl)-1-(6-(4-methoxyphenyl)-2-(trifluoromethyl)pyrimidin-4-yl)pyrrolidine-2-carboxamide], for which the half-maximal effective concentration (EC50) at mouse TGR5 receptor was below 0.1 µM; at human TGR5 receptor, 0.1 to 0.999 µM.

As for `COc1ccc(-c2cc(N3CCC[C@H]3C(=O)NCCc3ccc(C#N)cc3)nc(C(F)(F)F)n2)cc1OC` [Compound 149, (S)-N-(4-cyanophenethyl)-1-(6-(3,4-dimethoxyphenyl)-2-(trifluoromethyl)pyrimidin-4-yl)pyrrolidine-2-carboxamide], the half-maximal effective concentration (EC50) on mouse TGR5 receptor and at human TGR5 receptor was 0.1 to 0.999 µM throughout.

In the case of `N#Cc1ccc(CCNC(=O)[C@@H]2CCCN2c2cc(-c3ccc(OC(F)(F)F)cc3)nc(C(F)(F)F)n2)cc1` [Compound 150, (S)-N-(4-cyanophenethyl)-1-(6-(4-(trifluoromethoxy)phenyl)-2-(trifluoromethyl)pyrimidin-4-yl)pyrrolidine-2-carboxamide], the EC50 on mouse TGR5 receptor and on human TGR5 receptor was 0.1 to 0.999 µM each time.

As for `CCOc1ccc(-c2cc(N3CCC[C@H]3C(=O)NCCc3ccc(C#N)cc3)nc(C(F)(F)F)n2)cc1` [Compound 151, (S)-N-(4-cyanophenethyl)-1-(6-(4-ethoxyphenyl)-2-(trifluoromethyl)pyrimidin-4-yl)pyrrolidine-2-carboxamide], the concentration giving a half-maximal response (EC50) at mouse TGR5 receptor and on human TGR5 receptor was 0.1 to 0.999 µM in each case.

As to `CS(=O)(=O)Nc1cccc(-c2cc(N3CCC[C@H]3C(=O)NCCc3ccc(C#N)cc3)nc(C(F)(F)F)n2)c1` [Compound 153, (S)-N-(4-cyanophenethyl)-1-(6-(3-(methylsulfonamido)phenyl)-2-(trifluoromethyl)pyrimidin-4-yl)pyrrolidine-2-carboxamide], the EC50 fell in the range of 0.1 to 0.999 µM on mouse TGR5 receptor and 1 to 30 µM on human TGR5 receptor.
